How the values were obtained:
[1] = system: perception of sweet taste, in an aqueous solution; experiment: Inherent sweetness assessment, difference from control sip and spit method; type: in vivo, humans; settings: no sweetener
Description: The aqueous sucrose solutions were prepared by adding, sucrose (by weight), to water to achieve the desired concentration.
Compounds were first prepared as a 500-fold concentrated stock solution in 100% ethanol. These concentrated stocks were then added to water to result in a final ethanol concentration of 0.2%. The control (including positive control) samples were also normalized to 0.2% ethanol. This level of ethanol was not seen to contribute any perceived sweetness.
The intrinsic effect of test compounds on the perception of sweet taste, in an aqueous solution, in humans was evaluated using a difference from control “sip and spit” method employing a verbal category scale.
In this method, panelists (n=12) evaluate one pair of samples at a time—one sample contains water plus compound (i.e. test) while the other contains water without compound (i.e. control). Panelists were instructed to first taste the un-blinded control followed by the test sample and asked to rate the size of sweetness difference between the test and control sample, using a 6 point verbal category scale:
Verbal category scale • No difference • Slight difference • Slight/moderate difference • Moderate difference • Moderate/large difference • Very large difference
4 blinded controls comprising of one negative control (0% sucrose) and 3 positive control samples (0.5% sucrose, 1% sucrose and 2% sucrose) were also included as part of the test to evaluate the ability of panelists to rank the difference in sweetness perception between 0.5% sucrose, 1% sucrose and 2% sucrose compared to 0% sucrose control.
Panelists were instructed not to eat or drink (except water) for at least 1 h before the test. During the test, panelists were instructed to sip each sample, swirl it around their mouth and then expectorate. Panelists cleansed their palates by rinsing with water, eating a cracker and waiting for an interval of about 5 minutes. All samples were tasted at ambient temperatures.
The verbal category response for each test sample was converted into an integer numerical value, from 1 to 6 (e.g. no difference=1 and very large difference=6). Total numbers of panelist responses per integer value were plotted as a histogram. An assessment was then made, comparing mean, mode of the numerical value, and the distribution of the histogram plots, for test samples as compared to that of the positive (0.5% sucrose, 1% sucrose and 2% sucrose) and negative control (0% sucrose) sample. Inherent sweetness levels are then correlated to the positive controls as discrete bins: • Bin 1: 0% sucrose • Bin 2: >0% sucrose—<0.5% sucrose • Bin 3: 0.5% sucrose • Bin 4: >0.5% sucrose—<1% sucrose • Bin 5: 1% sucrose • Bin 6: >1% sucrose—<2% sucrose • Bin 7: 2% sucrose

[2] = system: perception of the sweet taste in an aqueous environment; experiment: Trained descriptive analysis (DA) panel, sweet attribute; type: in vivo, humans; settings: for DA Panel Average Sweetness Intensity Score (on 15 cm scale) / Fold enhancement of sweetness perception as compared to control sweetener solution / Perceived inherent sweetness compared to solubilizing agent alone / Perceived sweetness compared to solubilizing agent alone (inherent sweetness): 35 ppm compound plus solubilizing agent; for Perceived inherent sweetness compared to solubilizing agent alone: citric acid-citrate solution pH 3; for Compound effects beyond the additive effect of inherent sweetness: 4% fructose and 8% sucrose; for Compound effects beyond the additive effect of inherent sweetness / Perceived sweetness vs control sweetener solutions (FIG. 2) / Perceived sweetness vs control sweetener solutions (FIG. 1): 35 ppm; for Perceived sweetness vs control sweetener solutions (FIG. 2) / Perceived sweetness vs control sweetener solutions (FIG. 1): fructose and sucrose, ** p<0.01; for Perceived sweetness compared to solubilizing agent alone (inherent sweetness): water pH 7
Description: The effect of the test compounds on the perception of the sweet taste in an aqueous environment, in the absence or presence of carbohydrate sweeteners, was evaluated using a descriptive analysis methodology with a group of trained panelists, as follows.
Candidate panelists were recruited, with prescreening and personal interviews, and were assessed for their ability to detect, recognize and differentiate basic taste attributes or mixtures thereof as part of a standardized acuity test. These candidate panelists were also assessed for their innate ability to identify flavors, and to rank on intensity scales. Other senses such as smell and vision were also included as part of the assessment. Candidates also were screened for their ability to use the language to describe and articulate ideas.
Selected candidates proceeded to training as a group in three phases: (1) Lexicon development, (2) Concept alignment, and (3) Scaling descriptors. During lexicon development, panelists evaluated products appropriate for use in the study to generate and align on terms describing the flavor, taste, aromatic, trigeminal, and temporal attributes. During concept alignment, the panel evaluated the products mentioned above to clarify and confirm the attributes that were generated during lexicon development using reference standards that appropriately define each attribute; these are either physical references (e.g. sucrose solutions) or verbal descriptions (e.g. overall flavor). Product terms and concepts were validated during this portion of the study.
In the last phase, scaling descriptors, the panel participated in a series of exercises focused on ordering and ranking samples according to relative attribute intensity, measuring attribute intensity using a defined length of line scale. Whenever possible, different levels or concentration of references were used as anchors to facilitate use of the scale. Panelists were provided with blinded references at this stage to evaluate their understanding and perception of the scale.
The panel used in this example was trained to reference sweet attributes in an absolute manner, such that a particular concentration of sweetener is always measured by the panelists at the same point using a 15 cm line scale where each cm represents a 1% increase in sucrose to cover the range of 0% to 15% sucrose. For the rest of the attributes, the panel was trained using a hybrid approach between descriptive analysis methods (e.g. quantitative descriptive analysis, the sensory spectrum, etc.) well-known to those skilled in the art.
The trained panel was then used for a descriptive analysis assessment for Compounds 1, 2 and 3 in aqueous solutions at pH 3 and pH 7. Each of the three compounds was tested at 35 ppm in sucrose and fructose sweeteners. In addition, Compounds 1, 2 and 3 were also examined in water at pH 3 and pH 7 to assess for any inherent sweetness.
The aqueous sweetener solutions were prepared by adding, fructose or sucrose (by weight), to water to achieve the desired concentration. Aqueous sucrose solutions at pH 3 were buffered using a final concentration of 0.096% Citric Acid plus 0.036% Sodium Citrate while aqueous fructose solutions at pH 3 were buffered using a final concentration of 0.06% Citric Acid and 0.0225% Sodium Citrate.
Compounds were first prepared as a […] concentrated stock solution in 100% ethanol. These concentrated stocks were then added to the aqueous sweetener solutions to result in a final ethanol concentration of 0.2%. In addition to compounds, a solubilizing agent at a final concentration of 0.02% was added to the aqueous sweetener solutions. Control samples were also balanced with 0.2% ethanol and in certain cases 0.02% solubilizing agent.
Both control (aqueous sweetener solutions without compound) and variant (aqueous sweetener solutions with compound) samples were blinded and randomized (by sweetener and pH blocks). […]

[3] = citric acid-citrate solution pH 3, no sweetener
[4] = water pH 7, no sweetener, 1 cm = 1% sucrose

Row | Compound | Correlated Inherent Sweetness Assessment ([1]; compound 10 ppm in water) | Correlated Inherent Sweetness Assessment ([1]; compound 15 ppm in water) | DA Panel Average Sweetness Intensity Score (on 15 cm scale) ([2]; 4% fructose, pH 3) | Fold enhancement of sweetness perception as compared to control sweetener solution ([2]; 4% fructose, pH 3) | DA Panel Average Sweetness Intensity Score (on 15 cm scale) ([2]; 4% fructose, pH 7) | Fold enhancement of sweetness perception as compared to control sweetener solution ([2]; 4% fructose, pH 7) | DA Panel Average Sweetness Intensity Score (on 15 cm scale) ([2]; 8% sucrose, pH 3) | Fold enhancement of sweetness perception as compared to control sweetener solution ([2]; 8% sucrose, pH 3) | DA Panel Average Sweetness Intensity Score (on 15 cm scale) ([2]; 8% sucrose, pH 7) | Fold enhancement of sweetness perception as compared to control sweetener solution ([2]; 8% sucrose, pH 7) | DA Panel Average Sweetness Intensity Score (on 15 cm scale) [2, 3] | Perceived inherent sweetness compared to solubilizing agent alone [2] | Compound effects beyond the additive effect of inherent sweetness ([2]; pH 3) | Perceived sweetness vs control sweetener solutions (FIG. 2) ([2]; pH 3) | Compound effects beyond the additive effect of inherent sweetness ([2]; pH 7) | Perceived sweetness vs control sweetener solutions (FIG. 1) ([2]; pH 7) | DA Panel Average Sweetness Intensity Score (on 15 cm scale) [2, 4] | Perceived sweetness compared to solubilizing agent alone (inherent sweetness) [2]
1 | COc1ccc(C2CC(=O)c3c(O)cccc3O2)cc1O (single isomer, unassigned) [Compound 2, 5-hydroxy-2-(3-hydroxy-4-methoxyphenyl)chroman-4-one] | 0.5%-1% sucrose | 1% sucrose | 6.93 | 1.38X | 7.08 | 1.62X | 9.21 | 1.28X | 10.15 | 1.35X | 1.27 | do not show further significant increase in perceived inherent sweetness | super-additive effects | significant increase in perceived sweetness | super-additive effects | significant increase in perceived sweetness | 1.76 | further increase in perceived sweetness
2 | COc1ccc(C2CC(=O)c3c(O)cccc3O2)cc1O (single isomer, unassigned) [Compound 3, 5-hydroxy-2-(3-hydroxy-4-methoxyphenyl)chroman-4-one] | 0.5%-1% sucrose | 1% sucrose | 7.09 | 1.41X | 7.08 | 1.62X | 9.23 | 1.28X | 10.22 | 1.36X | 1.58 | do not show further significant increase in perceived inherent sweetness | super-additive effects | significant increase in perceived sweetness | super-additive effects | significant increase in perceived sweetness | 1.58 | further increase in perceived sweetness

Reference: patent US20160015064A1, “COMPOUNDS, COMPOSITIONS, AND METHODS FOR MODULATING SWEET TASTE” (CHROMOCELL CORPORATION, priority 2013, published 2016)
